Where two headings read alike, the source gives them in different places.
Columns and labels:
[1] = Bleomycin model of pulmonary fibrosis: right lung hydroxyproline content, left lung fibrosis score; format: in vivo, Wistar rats; conditions: Wistar, rat, plasma, read-out: Plasma AUCO-2 hrs
Method: (§1) To compare anti-fibrotic efficacy between extended-duration intratracheal, direct-lung aerosol administration and oral gavage, the bleomycin model of pulmonary fibrosis was performed. Doses for this study were selected based upon pharmacokinetic parameters obtained in Table 22 (from Example 8). Briefly, Wistar rats (175-225 grams) were administered bleomycin by the intratracheal route using a Penn Century MicroSprayer® catheter. On the seventh day following bleomycin exposure, animals initiated treatment with either saline or pirfenidone. Animals were dosed once a day on days 7 through 28, and euthanized on day 29. Pirfenidone was administered either intratracheally using Penn Century MicroSprayer catheter or by oral gavage. Sham and bleomycin control groups received either no treatment or intratracheal saline by Penn Century MicroSprayer catheter. While dosing more frequently (or less frequently) may improve the observed effects, anesthesia required for intratracheal administration reduced animal weight gain (reduced food intake) and, thus limited dosing to once a day for this study. Because anesthesia reduced weight gain, all study animals (intratracheal, oral and control) received once-a-day isoflurane using the same technique and duration. Twelve animals were enrolled into each dosing group. […] Oral gavage was administered in a single 300 mcL volume. Due to technical restrictions, instead of the mg/kg dose being equally split between six 50 mcL administrations over 2 minutes, intratracheal administration was performed with three equal 50 mcL volumes administered every 40 seconds over the same period. For dose selection, data from Table 22 was extrapolated. On day 29, animals were euthanized. Right lungs were extracted and measured for hydroxyproline content, while left lungs were subjected to histology. Histological sections were stained with picrosirius red and scored for lung tissue fibrosis. Twenty random photographs of each stained lung tissue section were taken, blinded and scored by an independent review panel. Observations were pooled for analysis. […] Doses selected for this study targeted critical pharmacokinetic parameters from the comparator oral route (matching lung tissue Cmax or plasma AUC). These targets were selected from a pharmacokinetic study wherein lung tissue and plasma were collected and pirfenidone levels were compared. In these studies, lung tissue Cmax following intratracheal administration was always the first collected time point. It is important to consider that the duration of time required to collect this first lung tissue may not accurately capture the true lung Cmax. […] It was this pharmacokinetic point that the above Cmax for dosing was selected. If it was possible to collect lung tissue earlier, the Cmax may be higher. As the Penn Century MicroSprayer catheter delivers nearly the entire loaded dose, the possible delivered Cmax in these studies may be higher. […] In this study, we divided the dose into thirds.

[2] = tested on: bleomycin model of pulmonary fibrosis; assay: as above; format: in vivo, Wistar rats; conditions: for Average Hydroxyproline, difference from bleomycin control: sham-subtracted
Method: as §1

[3] = Rubino et al., cited from earlier work
[4] = Process temperature development study (60° C. dissolution, cooling to 25° C.); format: physicochemical; conditions: for Pirfenidone (mg/mL) >Re-crystal: after stepwise cooling to 25° C. and later re-crystallization
Method: Formulations were prepared as described in Table 11. […] The final volume of each formulation was 5 mL. […] Each sample was mixed thoroughly and agitated overnight at 60° C. Rapid cooling and step-wise cooling from 60° C. to 25° C. was performed. HPLC analysis was performed on samples taken after overnight incubation and after cooling to 25° C. Prior to HPLC analysis, formulations were filtered via syringe through a 0.45 μm PVDF filter.

[5] = EtOH 0, PG 8, PS80 0 % v/v, 92% phosphate buffer (5 mM), pH 6.6
[6] = EtOH 0, PG 8, PS80 0.04 % v/v, 92% phosphate buffer (5 mM), pH 6.7
[7] = EtOH 4, PG 0, PS80 0.04 % v/v, 96% phosphate buffer (5 mM), pH 6.6
[8] = EtOH 4, PG 8, PS80 0 % v/v, 88% phosphate buffer (5 mM), pH 6.7
[9] = EtOH 4, PG 8, PS80 0.04 % v/v, 88% phosphate buffer (5 mM), pH 6.7

With `Cc1ccc(=O)n(-c2ccccc2)c1` [pirfenidone, 5-methyl-1-phenyl-2-(1H)-pyridone] the AUC ([1]; inhaled or intranasal, Bleomycin + IT 0.9 mg/kg) was 3000 ng·h/mL, the AUC ([1]; inhaled or intranasal, Bleomycin + IT 3.0 mg/kg) was 7700 ng·h/mL and the AUC ([1]; inhaled or intranasal, Bleomycin + IT 6.4 mg/kg) was 16500 ng·h/mL. For the same molecule, the AUC ([1]; Bleomycin + PO 30 mg/kg) was 16600 ng·h/mL, the AUC ([1]; Bleomycin + PO 100 mg/kg) was 29600 ng·h/mL and the “possible lung tissue Cmax” value ([2]; 0.9 mg/kg intratracheal dose divided into thirds) was “about 50 mcg/gram lung tissue”. For the same molecule, the “possible lung tissue Cmax” value ([2]; 0.9 mg/kg intratracheal dose to a 250 gram rat, lung about 1.5 grams, whole dose) was at most 150 mcg/gram, the anti-fibrotic efficacy ([2]; 3.0 mg/kg intratracheal, direct lung aerosol rat dose) was “no observed pirfenidone efficacy” and the “Lung Tissue AUC0-2 hrs” value ([2]; Bleomycin + IT 0.9 mg/kg) was 2.6 µg·h/g. For the same molecule, the “Lung Tissue Cmax” value ([2]; Bleomycin + IT 0.9 mg/kg) was 11.6 µg/g, the “Average Hydroxyproline, difference from bleomycin control” value (from here on “Average Hydroxyproline, difference”) ([2]; Bleomycin + IT 0.9 mg/kg) was −0.70*, **** mg/rightlung and the “Lung Tissue AUC0-2 hrs” value ([2]; Bleomycin + IT 3.0 mg/kg) was 7.3 µg·h/g. The “Lung Tissue Cmax” value ([2]; Bleomycin + IT 3.0 mg/kg) was 33.5 µg/g, the “Average Hydroxyproline, difference” value ([2]; Bleomycin + IT 3.0 mg/kg) was −0.02**, **** mg/rightlung and the “Lung Tissue AUC0-2 hrs” value ([2]; Bleomycin + IT 6.4 mg/kg) was 15.5 µg·h/g. The “Lung Tissue Cmax” value ([2]; Bleomycin + IT 6.4 mg/kg) was 71.5 µg/g, the “Average Hydroxyproline, right lung” value ([2]; Bleomycin + IT 6.4 mg/kg once a day, days 7 through 28) was 3.50 mg/right lung and the “Average Hydroxyproline, difference” value ([2]; Bleomycin + IT 6.4 mg/kg) was −0.08***, **** mg/rightlung. For the same molecule, the “Lung Tissue AUC0-2 hrs” value ([2]; Bleomycin + PO 30 mg/kg) was 18.2 µg·h/g, the “Lung Tissue Cmax” value ([2]; Bleomycin + PO 30 mg/kg) was 11.8 µg/g and the “Lung Tissue AUC0-2 hrs” value ([2]; Bleomycin + PO 100 mg/kg) was 34.4 µg·h/g. The “Lung Tissue Cmax” value ([2]; Bleomycin + PO 100 mg/kg) was 33.6 µg/g, the “anti-fibrotic efficacy, direct lung delivery versus oral” value ([2]; intratracheal aerosol versus oral gavage) was “more efficacious (less fibrosis and less hydroxyproline)” and the T1/2 beta ([3]; lung tissue (derived solely from plasma T1/2), aerosol 110 mg RDD, 2009 fasted-state) was 2.5 h. For the same molecule, the T1/2 beta ([3]; lung tissue (derived solely from plasma T1/2), aerosol 154 mg RDD, 2009 fasted-state) was 2.5 h, the T1/2 beta ([3]; lung tissue (derived solely from plasma T1/2), aerosol 185 mg RDD, 2009 fasted-state) was 2.5 h and the T1/2 beta ([3]; lung tissue (derived solely from plasma T1/2), oral 801 mg, fasted-state, 2009) was 2.5 h. The T1/2 beta ([3]; lung tissue (derived solely from plasma T1/2), oral 801 mg, fed-state, 2009) was 2.4 h, the T1/2 beta ([3]; plasma, aerosol 110 mg RDD, 2009 fasted-state) was 2.5 h and the T1/2 beta ([3]; plasma, aerosol 154 mg RDD, 2009 fasted-state) was 2.5 h. The T1/2 beta ([3]; plasma, aerosol 185 mg RDD, 2009 fasted-state) was 2.5 h, the T1/2 beta ([3]; plasma, oral 801 mg, fasted-state, 2009) was 2.5 h and the T1/2 beta ([3]; plasma, oral 801 mg, fed-state, 2009) was 2.4 h. The “full dissolution on heating” value ([4]; 60° C.) was at least 50 mg/mL, the “Observations: dissolution” value [4, 5] was “Fully dissolved after overnight at 60 °C” and the “Observations: stable at 25° C. before re-crystallization” value (“Observations: stable” for short) [4, 5] was “Stable at 25 °C for >4 hours before re-”. For the same molecule, the “Pirfenidone (mg/mL) >60° C.” value [4, 5] was 54.6 mg/mL, the “Pirfenidone (mg/mL) >Re-crystal” value [4, 5] was 18.6 mg/mL and the “Observations: dissolution” value [4, 6] was “Fully dissolved after overnight at 60 °C”. The “Observations: stable” value [4, 6] was “Stable at 25 °C for >4 hours before re-”, the “Pirfenidone (mg/mL) >60° C.” value [4, 6] was 52.8 mg/mL and the “Pirfenidone (mg/mL) >Re-crystal” value [4, 6] was 22.3 mg/mL. The “Observations: dissolution” value [4, 7] was “Fully dissolved after overnight at 60 °C”, the “Observations: stable” value [4, 7] was “Stable at 25 °C for >4 hours before re-” and the “Pirfenidone (mg/mL) >60° C.” value [4, 7] was 50.7 mg/mL. For the same molecule, the “Pirfenidone (mg/mL) >Re-crystal” value [4, 7] was 22.4 mg/mL, the “Observations: dissolution” value [4, 8] was “Fully dissolved after overnight at 60 °C” and the “Observations: stable” value [4, 8] was “Stable at 25 °C for >4 hours before re-”. For the same molecule, the “Pirfenidone (mg/mL) >60° C.” value [4, 8] was 50.34 mg/mL, the “Pirfenidone (mg/mL) >Re-crystal” value [4, 8] was 27.6 mg/mL and the “Observations: dissolution” value [4, 9] was “Fully dissolved after overnight at 60 °C”. For the same molecule, the “Observations: stable” value [4, 9] was “Stable at 25 °C for >4 hours before re-”, the “Pirfenidone (mg/mL) >60° C.” value [4, 9] was 51.8 mg/mL and the “Pirfenidone (mg/mL) >Re-crystal” value [4, 9] was 26.8 mg/mL. For the same molecule, the “outcome of rapid cooling” value ([4]; rapid cooling to 25° C.) was “rapid recrystallization” and the “concentration staying in solution for several hours” value ([4]; slow step-wise cooling from 60° C. to 25° C.) was “about 50 mg/mL”.

Source: US11452718B2 (AVALYN PHARMA INC., priority 2012, dated 2022)
